# Experimental data from patent publication EP1172104A1, “SEAM SOFT CAPSULE PREPARATIONS CONTAINING DIHYDROBENZOFURAN DERIVATIVE” (CHUGAI SEIYAKU KABUSHIKI KAISHA, priority 1999, dated 2000).
# Columns and labels:
# Type in all cases: physicochemical
# [1] = Stability of seamed soft capsule formulations of BO-653 (2): Formulation 3, shell thickness and glycerin content, HPLC; conditions: Formulation 3 (50% w/w in soybean oil)
# Experimental: Formulation 3 obtained in Example 1 was stored at 50°C in a 100% oxygen atmosphere.
# [2] = Stability of BO-653 in various fat and oils (influence of oxygen, accelerated test at 80°C, HPLC); conditions: 17 hours
# Experimental: The influence of oxygen on the stability of BO-653 in various fat and oils was tested. BO-653 was dissolved in soybean oil, olive oil, MCT, tricaprylin, and linoleic acid separately to give a concentration of 50% by weight. 70 mg of each of the solutions was placed into individual 5 cc glass bottles. Separately, 35 mg of BO-653 was directly placed into a 5 cc glass bottle. The samples were prepared in duplicate. One set of samples were subjected to an argon replacement of the headspace of the bottles and then tightly sealed, while the other set of samples were sealed without argon replacement. Accelerated test at 80°C was conducted using all of the samples.
# [3] = Stability of seamed soft capsule formulation of BO-653 (1): Formulations 1 and 2, accelerated tests, HPLC; conditions: 100% oxygen atmosphere
# Experimental: Formulations 1 and 2 obtained in Example 1 were tested for their stability under the conditions below: Condition 1: • Formulation 1 was left at 40°C in a 100% oxygen atmosphere. Condition 2: • Formulation 1 was left at 50°C in a 100% oxygen atmosphere. Condition 3: • Formulation 2 was left at 50°C in a 100% oxygen atmosphere.
# As a control, BO-653 was dissolved in soybean oil to give a concentration of 10% by weight and the solution was left at 40°C in a 100% oxygen atmosphere in the form that the solution was not filled into a soft capsule.
# [4] = Stability of seamed soft capsule formulations of BO-653 (3): Formulation 4, various storage conditions, HPLC
substance,measurement,setting,value
"4,6-di-tert-butyl-2,2-di-n-pentyl-5-hydroxy-2,3-dihydrobenzofuran [BO-653]",Content (%) of BO-653 after left at 50°C in a 100% oxygen atmosphere for 1 month,"[1]; Capsule No. 1: thickness 26 x 10^-3 inch (66 x 10^-2 mm), glycerin content 30.0",99.4%
same,Content (%) of BO-653 after left at 50°C in a 100% oxygen atmosphere for 1 month,"[1]; Capsule No. 2: thickness 30 x 10^-3 inch (76 x 10^-2 mm), glycerin content 30.0",99.9%
same,Content (%) of BO-653 after left at 50°C in a 100% oxygen atmosphere for 1 month,"[1]; Capsule No. 3: thickness 34 x 10^-3 inch (86 x 10^-2 mm), glycerin content 30.0",99.7%
same,Content (%) of BO-653 after left at 50°C in a 100% oxygen atmosphere for 1 month,"[1]; Capsule No. 4: thickness 26 x 10^-3 inch (66 x 10^-2 mm), glycerin content 44.2",98.8%
same,Content (%) of BO-653 after left at 50°C in a 100% oxygen atmosphere for 1 month,"[1]; Capsule No. 5: thickness 30 x 10^-3 inch (76 x 10^-2 mm), glycerin content 44.2",100.0%
same,Content (%) of BO-653 after left at 50°C in a 100% oxygen atmosphere for 1 month,"[1]; Capsule No. 6: thickness 34 x 10^-3 inch (86 x 10^-2 mm), glycerin content 44.2",100.8%
same,Content (%) of BO-653 after left at 50°C in a 100% oxygen atmosphere for 1 month,"[1]; Capsule No. 8: thickness 30 x 10^-3 inch (76 x 10^-2 mm), glycerin content 56.4",97.0%
same,Content (%) of BO-653 after left at 50°C in a 100% oxygen atmosphere for 1 month,"[1]; Capsule No. 9: thickness 34 x 10^-3 inch (86 x 10^-2 mm), glycerin content 56.4",98.8%
same,residual ratio of BO-653,"[2]; 50% by weight in soybean oil, without argon replacement (presence of oxygen)",Relatively high stability
same,residual ratio of BO-653,"[2]; BO-653 alone or 50% by weight in soybean oil, olive oil, MCT, tricaprylin or linoleic acid, with argon replacement (absence of oxygen)",little loss
same,Residual ratio (%) of BO-653,"[3]; Condition 1: Formulation 1 (10% w/w in soybean oil, seamed soft capsule), 40°C, 1 month",100.7%
same,Residual ratio (%) of BO-653,"[3]; Condition 2: Formulation 1 (10% w/w in soybean oil, seamed soft capsule), 50°C, 2 weeks",99.6%
same,Residual ratio (%) of BO-653,"[3]; Condition 3: Formulation 2 (10% w/w in MCT, seamed soft capsule), 50°C, 3 weeks",92.8%
same,Residual ratio (%) of BO-653,"[3]; Control: 10% by weight solution in soybean oil not filled into a soft capsule, 40°C, 1 month",< 0.2%
same,Residual ratio (%) of BO-653,"[4]; Formulation 4, BO-653 content in filling solution 4% by weight, 40°C, RH75% - 1M",99.0%
same,Residual ratio (%) of BO-653,"[4]; Formulation 4, BO-653 content in filling solution 4% by weight, 50°C, 100% oxygen atmosphere-1M",100.0%
same,Residual ratio (%) of BO-653,"[4]; Formulation 4, BO-653 content in filling solution 4% by weight, irradiation with 1,200,000 lux.hrs white light",100.0%
same,Residual ratio (%) of BO-653,"[4]; Formulation 4, BO-653 content in filling solution 4% by weight, irradiation with 1,200,000 lux.hrs white light followed by 400 W.hrs/m^2 UV rays",98.0%
same,Residual ratio (%) of BO-653,"[4]; Formulation 4, BO-653 content in filling solution 40% by weight, 40°C, RH75% - 1M",100.1%
same,Residual ratio (%) of BO-653,"[4]; Formulation 4, BO-653 content in filling solution 40% by weight, 50°C, 100% oxygen atmosphere-1M",100.7%
same,Residual ratio (%) of BO-653,"[4]; Formulation 4, BO-653 content in filling solution 40% by weight, irradiation with 1,200,000 lux.hrs white light",100.0%
same,Residual ratio (%) of BO-653,"[4]; Formulation 4, BO-653 content in filling solution 40% by weight, irradiation with 1,200,000 lux.hrs white light followed by 400 W.hrs/m^2 UV rays",99.7%
same,Residual ratio (%) of BO-653,"[4]; Formulation 4, BO-653 content in filling solution 80% by weight, 40°C, RH75% - 1M",99.8%
same,Residual ratio (%) of BO-653,"[4]; Formulation 4, BO-653 content in filling solution 80% by weight, 50°C, 100% oxygen atmosphere-1M",101.0%
same,Residual ratio (%) of BO-653,"[4]; Formulation 4, BO-653 content in filling solution 80% by weight, irradiation with 1,200,000 lux.hrs white light",99.5%
same,Residual ratio (%) of BO-653,"[4]; Formulation 4, BO-653 content in filling solution 80% by weight, irradiation with 1,200,000 lux.hrs white light followed by 400 W.hrs/m^2 UV rays",99.8%
